Assay results published in patent US12570655B2, “Cysteine covalent modifiers of AKT1 and uses thereof” (Terremoto Biosciences, Inc., priority 2023, dated 2026).
Like-named read-outs stand apart in the source and are kept apart here.

Columns and labels:
AKT1 E17K = molecular target: T1, AKT1 E17K (Homo sapiens, UniProt P31749, E17K); assay: Live cell AKT1 E17K target engagement by NanoBRET competitive probe displacement; type: cell-based; conditions: HEK293 cells transfected with kinase-NanoLuciferase fusion, 2 h at 37° C.
T1 construct: expressed in transfected cells; host or cells: HEK293
Method: Determining Live Cell AKT1 E17K, AKT1 WT, and AKT2 Target Engagement by NanoBRET Competitive Probe Displacement.
Live cell target engagement assays were performed as described (Vasta, J. D. et al. Cell Chem Biol 2018, 25(11), 206-214). Briefly, HEK293 cells were transfected with plasmids encoding kinase-NanoLuciferase fusion proteins overnight. Cells were then treated with serial dilutions of compound and an ˜EC50 concentration of fluorescently-tagged ATP-competitive tracer (Promega). After incubation for 2 h at 37° C., luciferase substrate and extracellular luciferase inhibitor were added to all wells, and luminescent intensity at 460 nm and 600 nm were measured on a multimode plate-reader. The ratio of E600/E460 was calculated to give the tracer engagement signal (BRET). IC50 values were calculated by fitting BRET values to a log(inhibitor) vs. response Hill equation.

[1] = test system: LAPC4 prostate cancer cells; assay: Antiproliferative effects in LAPC4 cells (CellTiter Glo); type: cell-based; conditions: LAPC4 cells (AKT1 E17K allele), read-out: LAPC4 proliferation IC50
Method: Antiproliferative Effects in LAPC4 Cells.
LAPC4 prostate cancer cells (Klein, K. A. et al. Nat Med 1997, 3, 402-408), which express the AKT1 E17K allele, were grown in IMDM media (Hyclone) supplemented with 12% FBS+1% P/S. To assess compound effects on growth, 1,000 cells/well were seeded in 384 well assay plates, incubated with compound dilutions dissolved in DMSO. After 72 h, intracellular ATP content was assessed with CellTiter Glo reagent (Promega) according to the manufacturer's instructions. IC50 values were calculated by fitting luminescence values to a log(inhibitor) vs. response Hill equation.

T1 sequence (P31749 whole entry E17K, the tested form may be a part): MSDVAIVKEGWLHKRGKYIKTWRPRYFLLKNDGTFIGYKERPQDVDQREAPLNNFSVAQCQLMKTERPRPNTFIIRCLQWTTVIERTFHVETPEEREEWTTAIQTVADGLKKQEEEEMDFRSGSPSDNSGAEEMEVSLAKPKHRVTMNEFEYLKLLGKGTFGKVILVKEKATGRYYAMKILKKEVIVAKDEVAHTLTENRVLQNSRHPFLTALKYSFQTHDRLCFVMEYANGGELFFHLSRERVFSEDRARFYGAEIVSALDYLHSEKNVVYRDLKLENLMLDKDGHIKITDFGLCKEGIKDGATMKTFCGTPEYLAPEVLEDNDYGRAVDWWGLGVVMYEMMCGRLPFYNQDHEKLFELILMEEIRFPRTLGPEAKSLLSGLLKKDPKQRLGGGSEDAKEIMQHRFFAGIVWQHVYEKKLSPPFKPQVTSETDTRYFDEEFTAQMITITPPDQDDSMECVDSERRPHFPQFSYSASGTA

Compound	IC50 (AKT1 E17K) [nM]	IC50 ([1]; Homo sapiens, LAPC4, 72 h) [nM]	IC50 ([1]; 72 h) [nM]
C=CC(=O)N1CCCC(c2cn([C@H]3CCc4cc(-n5c(-c6cccnc6N)nc6ccc(-n7cccn7)nc65)ccc43)nn2)C1 (single isomer, unassigned) [Example 167, 1-((*)-3-(1-((S)-5-(2-(2-aminopyridin-3-yl)-5-(1H-pyrazol-1-yl)-3H-imidazo[4,5-b]pyridin-3-yl)-2,3-dihydro-1H-inden-1-yl)-1H-1,2,3-triazol-4-yl)piperidin-1-yl)prop-2-en-1-one]	37.1	479	
C=CC(=O)N1C[C@H]2COC[C@@H](C1)C2N[C@H]1CCc2cc(-n3c(-c4cccnc4N)nc4ccc(C5CC5)nc43)ccc21 (single isomer, unassigned) [Example 171, 1-((1R,5S,9*)-9-(((S)-5-(2-(2-aminopyridin-3-yl)-5-cyclopropyl-3H-imidazo[4,5-b]pyridin-3-yl)-2,3-dihydro-1H-inden-1-yl)amino)-3-oxa-7-azabicyclo[3.3.1]nonan-7-yl)prop-2-en-1-one]	> 1000		6610
C=CC(=O)N1CCC(N[C@@H]2c3ccc(-n4c(-c5cccnc5N)nc5ccc(-n6cccn6)nc54)cc3CC2C)CC1 (single isomer, unassigned) [Example 182, 1-(4-(((1S,2*)-5-(2-(2-aminopyridin-3-yl)-5-(1H-pyrazol-1-yl)-3H-imidazo[4,5-b]pyridin-3-yl)-2-methyl-2,3-dihydro-1H-inden-1-yl)amino)piperidin-1-yl)prop-2-en-1-one]	152		3160
C=CC(=O)N1CCC(N[C@@H]2c3ccc(-n4c(-c5cccnc5N)nc5ccc(C6CC6)nc54)cc3CC2F)CC1 (single isomer, unassigned) [Example 202, 1-(4-(((1R,2*)-5-(2-(2-aminopyridin-3-yl)-5-cyclopropyl-3H-imidazo[4,5-b]pyridin-3-yl)-2-fluoro-2,3-dihydro-1H-inden-1-yl)amino)piperidin-1-yl)prop-2-en-1-one]	111	3090	
C=CC(=O)N1CCC(N[C@H]2CCc3cc(-n4c(-c5cccnc5N)nc5ccc(-n6cccn6)nc54)ccc32)C[C@H]1C(F)F (single isomer, unassigned) [Example 215, 1-((2S,4*)-4-(((S)-5-(2-(2-aminopyridin-3-yl)-5-(1H-pyrazol-1-yl)-3H-imidazo[4,5-b]pyridin-3-yl)-2,3-dihydro-1H-inden-1-yl)amino)-2-(difluoromethyl)piperidin-1-yl)prop-2-en-1-one]	4.56		42.3
C=CC(=O)N1CC(F)C(N[C@H]2CCc3cc(-n4c(-c5cccnc5N)nc5ccc(-n6cccn6)nc54)ccc32)C(F)C1 (single isomer, unassigned) [Example 220, 1-((3*,4*,5*)-4-(((S)-5-(2-(2-aminopyridin-3-yl)-5-(1H-pyrazol-1-yl)-3H-imidazo[4,5-b]pyridin-3-yl)-2,3-dihydro-1H-inden-1-yl)amino)-3,5-difluoropiperidin-1-yl)prop-2-en-1-one]	380	> 10000	
C=CC(=O)N1CC(F)C(N[C@H]2CCc3cc(-n4c(-c5cccnc5N)nc5ccc(-n6cccn6)nc54)ccc32)C(F)C1 (single isomer, unassigned) [Example 221, 1-((3*,4*,5*)-4-(((S)-5-(2-(2-aminopyridin-3-yl)-5-(1H-pyrazol-1-yl)-3H-imidazo[4,5-b]pyridin-3-yl)-2,3-dihydro-1H-inden-1-yl)amino)-3,5-difluoropiperidin-1-yl)prop-2-en-1-one]	567		> 10000
C=CC(=O)N1CC(F)C(N[C@H]2CCc3cc(-n4c(-c5cccnc5N)nc5ccc(-n6cccn6)nc54)ccc32)C(F)C1 (single isomer, unassigned) [Example 222, 1-((3*,5*)-4-(((S)-5-(2-(2-aminopyridin-3-yl)-5-(1H-pyrazol-1-yl)-3H-imidazo[4,5-b]pyridin-3-yl)-2,3-dihydro-1H-inden-1-yl)amino)-3,5-difluoropiperidin-1-yl)prop-2-en-1-one]	> 1000		> 10000
C=CC(=O)N1CC(F)C(N[C@H]2CCc3cc(-n4c(-c5cccnc5N)nc5ccc(-n6cccn6)nc54)ccc32)C(F)C1 (single isomer, unassigned) [Example 223, 1-((3*,5*)-4-(((S)-5-(2-(2-aminopyridin-3-yl)-5-(1H-pyrazol-1-yl)-3H-imidazo[4,5-b]pyridin-3-yl)-2,3-dihydro-1H-inden-1-yl)amino)-3,5-difluoropiperidin-1-yl)prop-2-en-1-one]	> 1000		> 10000
C=CC(=O)N1CCC(N[C@@H]2c3c(F)cc(-n4c(-c5cccnc5N)nc5ccc(-n6cccn6)nc54)cc3CC2F)CC1 (single isomer, unassigned) [Example 341, 1-(4-(((1R,2*)-5-(2-(2-aminopyridin-3-yl)-5-(1H-pyrazol-1-yl)-3H-imidazo[4,5-b]pyridin-3-yl)-2,7-difluoro-2,3-dihydro-1H-inden-1-yl)amino)piperidin-1-yl)prop-2-en-1-one]	80.3		
C=CC(=O)N1CCN(C2CCc3cc(-n4c(-c5cccnc5N)nc5ccc(-n6cccn6)nc54)ccc32)CC1 (stereo not shown) [Example 204, 1-(4-{5-[2-(2-aminopyridin-3-yl)-5-(pyrazol-1-yl)imidazo[4,5-b]pyridin-3-yl]-2,3-dihydro-1H-inden-1-yl}piperazin-1-yl)prop-2-en-1-one]	287	3820	
C=CC(=O)N1CCC(N[C@H]2CCc3cc(-n4c(-c5cccnc5N)nc5ccc(-c6ccccc6)nc54)ccc32)CC1 [Example 209, (S)-1-(4-((5-(2-(2-aminopyridin-3-yl)-5-phenyl-3H-imidazo[4,5-b]pyridin-3-yl)-2,3-dihydro-1H-inden-1-yl)amino)piperidin-1-yl)prop-2-en-1-one]	2.29	17	
C=CC(=O)N1CCC(N[C@H]2CCc3cc(-n4c(C5CC5)nc5ccc(-n6cccn6)nc54)ccc32)CC1 [Example 248, (S)-1-(4-((5-(2-cyclopropyl-5-(1H-pyrazol-1-yl)-3H-imidazo[4,5-b]-430-pyridine-3-yl)-2,3-dihydro-1H-inden-1-yl)amino)piperidin-1-yl)prop-2-en-1-one]	> 1000	> 10000	
C=CC(=O)N1CCC(N[C@H]2CCc3cc(-n4c(-c5cccnc5N)nc5ccc(CN6CCOCC6)nc54)ccc32)CC1 [Example 260, 1-(4-{[(1S)-5-[2-(2-aminopyridin-3-yl)-5-(morpholin-4-ylmethyl)imidazo[4,5-b]pyridin-3-yl]-2,3-dihydro-1H-inden-1-yl]amino}piperidin-1-yl)prop-2-en-1-one]	> 1000	> 10000	
C=CC(=O)N1Cc2cccc(C(=O)N[C@H]3CCc4cc(-n5c(-c6cccnc6N)nc6ccc(-n7cccn7)nc65)ccc43)c2C1 [Example 266, (S)-2-acryloyl-N-(5-(2-(2-aminopyridin-3-yl)-5-(1H-pyrazol-1-yl)-3H-imidazo[4,5-b]pyridin-3-yl)-2,3-dihydro-1H-inden-1-yl)isoindoline-4-carboxamide]	3.34	4.4	
C=CC(=O)N1CCC(N[C@H]2CCc3cc(-n4c(-c5cccnc5N)nc5ccc(N6C7CCC6COC7)nc54)ccc32)CC1 [Example 278, 1-(4-{[(1S)-5-[2-(2-aminopyridin-3-yl)-5-{3-oxa-8-azabicyclo[3.2.1]octan-8-yl}imidazo[4,5-b]pyridin-3-yl]-2,3-dihydro-1H-inden-1-yl]amino}piperidin-1-yl)prop-2-en-1-one]	164	1850	
C=CC(=O)N1CCC(N[C@H]2CCc3cc(-n4c(-c5cccnc5N)nc5ccc(C6COC6)nc54)ccc32)CC1 [Example 279, 1-(4-{[(1S)-5-[2-(2-aminopyridin-3-yl)-5-(oxetan-3-yl)imidazo[4,5-b]pyridin-3-yl]-2,3-dihydro-1H-inden-1-yl]amino}piperidin-1-yl)prop-2-en-1-one]	168	1570	
C=CC(=O)N1CCC(N[C@H]2CCc3cc(-n4c(-c5ccccc5C#N)nc5ccc(-n6cccn6)nc54)ccc32)CC1 [Example 284, 2-{3-[(1S)-1-{[1-(prop-2-enoyl)piperidin-4-yl]amino}-2,3-dihydro-1H-inden-5-yl]-5-(pyrazol-1-yl)imidazo[4,5-b]pyridin-2-yl}benzonitrile]	273	7210	
C=CC(=O)N1CCC(N[C@H]2CCc3cc(-n4c(-c5ccccc5C(F)F)nc5ccc(-n6cccn6)nc54)ccc32)CC1 [Example 285, (S)-1-(4-((5-(2-(2-(difluoromethyl)phenyl)-5-(1H-pyrazol-1-yl)-3H-imidazo[4,5-b]pyridin-3-yl)-2,3-dihydro-1H-inden-1-yl)amino)piperidin-1-yl)prop-2-en-1-one]	604	1550	
